Measurements from patent US20250222120A1, “SYNTHESIS OF NOVEL SMALL MOLECULE CARM1 DEGRADERS, COMPOUNDS FORMED THEREBY, AND PHARMACEUTICAL COMPOSITIONS CONTAINING THEM” (Wisconsin Alumni Research Foundation, priority 2024, published 2025).

Legend:
MCF7 cells = experiment: Global quantitative proteomic analysis of MCF7 cells by mass spectrometry; format: cell-based, Homo sapiens; details: 25 nM, 4 h, two-fold cutoff, p-value ≤0.05, 3491 proteins quantified
Description: Sample preparation for global proteomics analysis. Sample preparation is similar to the previous report (Ma et al. “Strategy Based on Deglycosylation, Multiprotease, and Hydrophilic Interaction Chromatography for Large-Scale Profiling of Protein Methylation” Anal. Chem. 2017, 89 (23), 12909-12917). Briefly, treated MCF7 cells were harvested by washing with PBS buffer (Gibco, pH 7.4) and lysed in RIPA buffer supplemented with protease inhibitors for 20 min, then protein concentration was determined using a BCA Protein Assay Kit (Thermo Pierce, Rockford, IL) per manufacturer instructions. […] The concentrations of the peptide mixture were measured by peptide assay (Thermo Fisher Scientific). […]
LC-MS/MS data acquisition. Samples were analyzed on an Orbitrap Fusion Lumos Tribrid mass spectrometer (Thermo Fisher Scientific) coupled to a Dionex UltiMate 3000 UPLC system. […]
Data analysis. Protein identification and quantification by MaxQuant (version 1.5.3.8) based database searching, using the integrated Andromeda search engine with FDR <1% at peptide and protein levels. […] For label-free protein quantification (LFQ), the MaxQuant LFQ algorithm was used to quantitate the MS signals, and the proteins' intensities were represented in LFQintesnit (Schaab et al. “Analysis of High Accuracy, Quantitative Proteomics Data in the MaxQB Database” Mol. Cell. Proteomics 2012, 11 (3), M111.014068). […]

CARM1 = biological target: T1, CARM1 (Homo sapiens, UniProt Q86X55); experiment: CARM1 degradation by western blot in MCF7 cells; format: cell-based; design: Cell lysates were collected and the CARM1 levels were detected by western blots; endogenous in cells; host or cells: MCF7
T1 sequence (Q86X55 1-608): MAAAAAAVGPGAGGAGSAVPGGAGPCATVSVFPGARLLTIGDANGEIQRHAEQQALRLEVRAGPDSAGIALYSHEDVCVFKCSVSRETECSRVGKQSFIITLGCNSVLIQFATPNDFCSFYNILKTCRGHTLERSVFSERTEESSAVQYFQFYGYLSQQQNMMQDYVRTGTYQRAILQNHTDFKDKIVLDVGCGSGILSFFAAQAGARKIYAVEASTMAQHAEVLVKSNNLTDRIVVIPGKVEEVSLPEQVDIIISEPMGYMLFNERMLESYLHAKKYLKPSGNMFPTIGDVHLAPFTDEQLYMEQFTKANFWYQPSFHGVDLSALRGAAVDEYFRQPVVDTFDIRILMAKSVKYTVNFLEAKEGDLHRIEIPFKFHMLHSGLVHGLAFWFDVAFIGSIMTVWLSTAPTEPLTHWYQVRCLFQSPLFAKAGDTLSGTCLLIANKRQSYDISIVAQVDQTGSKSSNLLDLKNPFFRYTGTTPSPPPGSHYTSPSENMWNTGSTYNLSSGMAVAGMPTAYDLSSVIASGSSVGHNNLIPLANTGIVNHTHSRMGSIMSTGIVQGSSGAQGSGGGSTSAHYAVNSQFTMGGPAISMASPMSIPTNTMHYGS
Description: Based on the structure of TPVC3, CARM1 degraders with stable and flexible alkyl linkages 2a-e were designed and synthesized. Degrader 2b bears the same linker length as TPVC3, while 2a has one less carbon. However, we also changed the hydrolytic labile C═N double bond, which is part of the acylhydrazone motif, in TPVC3 to a C—C bond in compound 2b. This change may influence the required optimal linker length. […] Western blot assays were performed to evaluate the CARM1 degradation activity of the compounds after treating MCF7 cells with these degraders at two concentrations (0.5 and 1.0 μM) for 24 h. […] It has one less carbon atom than 2a in terms of length. […] It has the same linker length as 2d.
The treatment dose and time were determined based on time-course and dose titration experiments (FIG. 4B-4C).
Western Blot Assay. Cells were harvested and washed with Dulbecco's phosphate-buffered saline (PBS), then lysed with 1×RIPA lysis buffer (50 mM Tris pH 7.5, 150 mM NaCl, 1% NP-40, 0.5% sodium deoxycholate, and 0.1% sodium dodecyl sulfate) supplemented with 1 mM phenylmethylsulfonyl fluoride, 10 μg/mL aprotinin, 1 μM leupeptin, and 10 μg/mL pepstatin on ice for 20 min. The supernatant was collected after spinning down at 15000 RPM at 4 degrees Celsius for 10 min. The concentration of whole lysates was quantified using a Bradford assay. 50-75 μg of cell lysates was boiled in 4× Laemmli Loading Dye and boiled at 100 degrees Celsius for 10 min. 25 μg were run in 8% SDS-PAGE gels and transferred to nitrocellulose membranes. Blots were blocked in 5% skim milk in PBST [PBS and 0.1% Tween 20] for 45 min, then incubated with primary antibodies at 4 degrees Celsius overnight. Blots were washed in PBST for 30 min, then incubated with horseradish peroxidase-linked secondary antibodies (Jackson ImmunoResearch) for 1 hr. Afterwards, blots were washed in PBST for 15-30 min, then treated with chemiluminescent ECL reagent and imaged with the ChemiDoc Imaging System (Bio-Rad) or Azure 600 (Azure Biosystems). Expression levels of the indicated proteins were probed by the following antibodies: anti-CARM1, anti-me-BAF155, anti-me-PABP1, anti-PABP1,^7 anti-BAF155 (D7F8S, Cell Signaling Technology), anti-PRMT1 (Bethyl), anti-PRMT6 (D-5, Santa Cruz Biotechnology), anti-β-Actin (ABclonal Technology, Sigma-Aldrich), anti-Hsp90 (H-114, Santa Cruz Biotechnology).

BAF155 me2a [1] = experiment: BAF155 me2a level in MDA-MB-231 cells, western blot; format: cell-based; details: 10 μM, after 48 h
Source text: (§1) FIGS. 7A-7F. […] Cell lysates were collected and CARM1, methyl-BAF155, total BAF155, methyl-PABP1, and total PABP1 levels were detected by Western blot. […] Cell lysates were collected and CARM1, methyl-BAF155, total BAF155 levels were detected by Western blot. […] Cell proliferation rate normalized to day 0 was plotted. […] Migrated cells were stained with 1% crystal violet and the percentage of migrated cells were plotted. Data mean±s.d. ***. P≤0.001.
(§2) Western Blot Assay. Cells were harvested and washed with Dulbecco's phosphate-buffered saline (PBS), then lysed with 1×RIPA lysis buffer (50 mM Tris pH 7.5, 150 mM NaCl, 1% NP-40, 0.5% sodium deoxycholate, and 0.1% sodium dodecyl sulfate) supplemented with 1 mM phenylmethylsulfonyl fluoride, 10 μg/mL aprotinin, 1 μM leupeptin, and 10 μg/mL pepstatin on ice for 20 min. The supernatant was collected after spinning down at 15000 RPM at 4 degrees Celsius for 10 min. The concentration of whole lysates was quantified using a Bradford assay. 50-75 μg of cell lysates was boiled in 4× Laemmli Loading Dye and boiled at 100 degrees Celsius for 10 min. 25 μg were run in 8% SDS-PAGE gels and transferred to nitrocellulose membranes. Blots were blocked in 5% skim milk in PBST [PBS and 0.1% Tween 20] for 45 min, then incubated with primary antibodies at 4 degrees Celsius overnight. […]

MDA-MB-231 cells = experiment: Transwell migration assay, MDA-MB-231 cells; format: cell-based; details: 10 μM, transwell, 20 h
Description: Transwell Migration Assay. Cells were harvested and washed in serum-free DMEM. The wells of a 24-well plate were filled with 800 μL of DMEM with 10% FBS. Transwell inserts with […] pore size were then added to the wells with DMEM. Cells were resuspended in serum-free DMEM, then 1×10^5 cells in 200 μL were added to the upper chambers. Drug treatments were added to the lower chambers, then incubated for 20 h at 37° C. The cells on the upper surface were removed with cotton swabs. Migratory cells were fixed in 3.7% formaldehyde at room temperature, followed by 100% methanol at −20° C. Fixed cells were stained with 1% crystal violet in 20% methanol for 30 min. The migration area was quantified from five independent fields of view of the lower surface of the membrane under a microscope.

BAF155 me2a [2] = experiment: BAF155 me2a level in BT474 cells, western blot; format: cell-based; details: 10 μM, after 48 h
Source text: as §1, §2

SMILES	Number of significantly changed proteins compared to the DMSO group (MCF7 cells)	CARM1 degradation by negative control (CARM1)	BAF155 me2a level (BAF155 me2a [1])	Cell migration (MDA-MB-231 cells)	BAF155 me2a level (BAF155 me2a [2])
COCCN1CCC(c2cc(CN(C)C(=O)c3cccc(Oc4ccc(OCC(=O)N5CCC(CN6CCC(CN7CCN(CC(=O)N[C@H](C(=O)N8C[C@H](O)C[C@H]8C(=O)N[C@@H](C)c8ccc(-c9scnc9C)cc8)C(C)(C)C)CC7)CC6)CC5)cc4)c3)ccn2)CC1 [Compound 3bN, (2S,4R)-4-hydroxy-1-((S)-2-(2-(4-((1-((1-(2-(4-(3-(((2-(1-(2-methoxyethyl)piperidin-4-yl)pyridin-4-yl)methyl)(methyl)carbamoyl)phenoxy)phenoxy)acetyl)piperidin-4-yl)methyl)piperidin-4-yl)methyl)piperazin-1-yl)acetamido)-3,3-dimethylbutanoyl)-N—((S)-1-(4-(4-methylthiazol-5-yl)phenyl)ethyl)pyrrolidine-2-carboxamide]	45	No CARM1 degradation was observed			
CNCCN1CCC(c2cc(CN(C)C(=O)c3cccc(Oc4ccccc4)c3)ccn2)CC1 [TP-064, reference compound]			decrease of BAF155 me2a level was observed	inhibited cell migration at a similar level	decrease of BAF155 me2a level was observed
